# Reference: BindingDB's records for patent US11958871 (Fraunhofer-Gesellschaft Zur Forderung Der Angewandten …, 2024)
# pKi: −log10 of the molar value.
# Assays:
# [1] = molecular target: T1, Peptidase M28 domain-containing protein (Prevotella nigrescens CC14M, UniProt V8CNC2)
# T1 sequence (V8CNC2 whole entry): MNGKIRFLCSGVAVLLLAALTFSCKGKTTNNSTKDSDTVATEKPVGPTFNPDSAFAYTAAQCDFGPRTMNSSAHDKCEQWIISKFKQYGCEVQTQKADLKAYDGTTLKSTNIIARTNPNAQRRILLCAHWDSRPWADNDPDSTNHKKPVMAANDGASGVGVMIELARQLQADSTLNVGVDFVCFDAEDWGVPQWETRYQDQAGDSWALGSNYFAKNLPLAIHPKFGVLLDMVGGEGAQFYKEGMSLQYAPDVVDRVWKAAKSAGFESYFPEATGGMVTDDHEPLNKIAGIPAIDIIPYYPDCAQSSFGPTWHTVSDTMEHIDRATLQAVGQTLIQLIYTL
# [2] = molecular target: T2, Glutamine cyclotransferase-related protein (Porphyromonas gingivalis (strain ATCC BAA-308 / W83), UniProt Q7MT37); assay: Inhibition of Glutaminyl Cyclases
# T2 sequence (Q7MT37 whole entry): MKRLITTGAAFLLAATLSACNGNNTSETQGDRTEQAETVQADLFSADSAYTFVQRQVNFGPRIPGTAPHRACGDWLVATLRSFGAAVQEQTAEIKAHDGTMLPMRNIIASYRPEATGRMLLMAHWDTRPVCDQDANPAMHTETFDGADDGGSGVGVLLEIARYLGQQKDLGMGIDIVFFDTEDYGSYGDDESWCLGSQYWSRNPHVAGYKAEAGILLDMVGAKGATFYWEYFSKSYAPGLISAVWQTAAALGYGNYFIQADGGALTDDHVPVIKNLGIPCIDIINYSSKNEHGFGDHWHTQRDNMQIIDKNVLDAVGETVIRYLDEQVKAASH
# Protocol: For inhibitor testing, the sample composition was the same as described above, except for the addition of the putative inhibitory compound. […] Inhibitory constants were determined using different concentration of H-Gln-AMC varying from Km-2 Km. Final concentration of bacterial QC was in a range between 25 nM-50 nM.
# Peptidase, M28 family = molecular target: T3, Peptidase, M28 family (Tannerella forsythia (strain ATCC 43037 / JCM 10827 / CCUG 21028 A / KCTC 5666 / FDC 338), UniProt G8UMP8)
# T3 sequence (G8UMP8 whole entry): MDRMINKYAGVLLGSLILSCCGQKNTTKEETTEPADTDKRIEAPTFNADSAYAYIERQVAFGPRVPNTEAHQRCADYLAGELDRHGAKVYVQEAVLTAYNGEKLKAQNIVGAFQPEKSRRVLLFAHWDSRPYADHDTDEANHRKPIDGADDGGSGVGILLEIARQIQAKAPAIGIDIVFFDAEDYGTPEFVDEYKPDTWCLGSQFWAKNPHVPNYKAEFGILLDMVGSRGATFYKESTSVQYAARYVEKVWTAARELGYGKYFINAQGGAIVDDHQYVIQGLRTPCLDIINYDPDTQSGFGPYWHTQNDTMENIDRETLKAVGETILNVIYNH
# [3] = molecular target: Glutaminyl-peptide cyclotransferase (Homo sapiens, UniProt Q16769)
# Glutaminyl-peptide cyclotransferase, sequence (Q16769 whole entry): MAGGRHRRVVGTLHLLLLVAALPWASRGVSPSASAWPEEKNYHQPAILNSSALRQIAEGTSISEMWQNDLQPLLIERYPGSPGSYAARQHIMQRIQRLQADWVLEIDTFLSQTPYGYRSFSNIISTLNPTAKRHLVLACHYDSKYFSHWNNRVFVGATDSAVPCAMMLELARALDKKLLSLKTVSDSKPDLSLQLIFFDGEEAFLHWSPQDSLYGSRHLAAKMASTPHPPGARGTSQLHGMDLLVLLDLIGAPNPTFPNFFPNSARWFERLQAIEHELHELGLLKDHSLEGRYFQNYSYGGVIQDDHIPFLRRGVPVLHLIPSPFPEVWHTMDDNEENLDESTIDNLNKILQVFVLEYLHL
SMILES,pKi [1],pKi [2],"pKi (Peptidase, M28 family)",pKi [3]
"c1ccc(CNc2ccc3nc[nH]c3n2)cc1 [US11958871, Example 1]",5.03,,,
"c1ccc(CNc2cnc3[nH]cnc3c2)cc1 [US11958871, Example 2]",,6.83,5.85,5.89
"Fc1cc(CNc2cnc3[nH]cnc3c2)cc(F)c1F [US11958871, Example 3]",,6.80,,
"Clc1cccc(CNc2cnc3[nH]cnc3c2)c1 [US11958871, Example 5]",,6.97,,6.11
"COc1cccc(CNc2cnc3[nH]cnc3c2)c1 [US11958871, Example 6]",,7.11,,6.22
"COc1ccc(CNc2cnc3[nH]cnc3c2)cc1 [US11958871, Example 7]",,7.08,,
"c1nc2cc(NCc3ccsc3)cnc2[nH]1 [US11958871, Example 8]",,6.73,,5.73
"c1cc(CNc2cnc3[nH]cnc3c2)cc(N2CCCCC2)c1 [US11958871, Example 9]",,6.35,,
"c1ccc(CNc2cnc3[nH]cnc3c2)nc1 [US11958871, Example 10]",,6.40,,
"c1cncc(CNc2cnc3[nH]cnc3c2)c1 [US11958871, Example 11]",,6.86,,
"c1nc2cc(NCc3ccc4c(c3)OCCO4)cnc2[nH]1 [US11958871, Example 12]",6.14,7.36,6.17,6.27
"COc1ccc(CNc2cnc3[nH]cnc3c2)cc1OC [US11958871, Example 13]",,6.88,,6.25
"Clc1ccc(CNc2cnc3[nH]cnc3c2)cc1Cl [US11958871, Example 14]",,7.28,6.45,6.37
"CCCOc1ccc(CNc2cnc3[nH]cnc3c2)cc1 [US11958871, Example 15]",,7.47,,
"NCCOc1ccc(CNc2cnc3[nH]cnc3c2)cc1 [US11958871, Example 16]",,7.52,6.50,5.97
